{"source": "patent US5908764A", "about": "“Methods and compositions for increasing production of erythromycin” (Solidago AG, priority 1997, dated 1999)", "origin": "cited, not measured here", "key": {"[1]": {"biological_target": "Vitreoscilla hemoglobin (VHb) (Vitreoscilla stercoraria, UniProt P04252)", "conditions": "koff rate for oxygen; Orii and Webster, 1986"}, "horse heart myoglobin": {"biological_target": "horse heart myoglobin (Equus caballus, UniProt P68082)", "sequence (P68082 whole entry)": "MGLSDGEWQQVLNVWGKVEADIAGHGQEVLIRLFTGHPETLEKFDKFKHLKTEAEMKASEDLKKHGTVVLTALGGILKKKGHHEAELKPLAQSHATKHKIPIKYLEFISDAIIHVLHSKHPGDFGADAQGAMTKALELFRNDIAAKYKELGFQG", "conditions": "oxygen affinity; Wittenberg et al., 1985"}}, "note": "pKd: −log10 of the molar value.", "data": [{"smiles": "O=O", "note": "[oxygen]", "values": [{"measurement": "koff", "setting": "[1]", "result": 5600, "unit": "s⁻¹"}, {"measurement": "pKd", "setting": "horse heart myoglobin", "result": 6.10}]}]}
